System: MV-4-11 cells
Assay: Gene expression microarray analysis (Affymetrix PrimeView) and GSEA
Type: cell-based, human
Set-up: RFU PODN (11730768_x_at) / Fold change /veh PODN (11730768_x_at) / RFU LINC00158 (11744669_a_at) / Fold change /veh LINC00158 (11744669_a_at) / RFU DUSP10 (11751237_a_at) / Fold change /veh DUSP10 (11751237_a_at) / RFU ID3 (11757404_x_at) / Fold change /veh ID3 (11757404_x_at) / RFU PLEKHG5 (11737974_s_at) / Fold change /veh PLEKHG5 (11737974_s_at) / RFU LRRC4B (11730491_at) / Fold change /veh LRRC4B (11730491_at) / RFU GIMAP4 (11747438_a_at) / Fold change /veh GIMAP4 (11747438_a_at) / RFU KRT8 (11758183_x_at) / Fold change /veh KRT8 (11758183_x_at) / RFU CNN1 (11734310_a_at) / Fold change /veh CNN1 (11734310_a_at) / RFU VPS37D (11726825_at) / Fold change /veh VPS37D (11726825_at) / RFU C10orf10 (11716522_x_at) / Fold change /veh C10orf10 (11716522_x_at) / RFU KIR2DL2 /// KIR2DL4 /// KIR2DL5A /// KIR2DL5B /// KIR2DS1 /// KIR2DS2 /// KIR2DS3 /// KIR2DS4 /// KIR3DL3 /// KIR3DL3 /// KIR3DS1 (11738374_at) / Fold change /veh KIR2DL2 /// KIR2DL4 /// KIR2DL5A /// KIR2DL5B /// KIR2DS1 /// KIR2DS2 /// KIR2DS3 /// KIR2DS4 /// KIR3DL3 /// KIR3DL3 /// KIR3DS1 (11738374_at) / RFU C1QL1 (11718748_at) / Fold change /veh C1QL1 (11718748_at) / RFU TMPRSS4 (11747572_a_at) / Fold change /veh TMPRSS4 (11747572_a_at) / RFU HAMP (11756126_x_at) / Fold change /veh HAMP (11756126_x_at) / RFU RNFT2 (11725882_a_at) / Fold change /veh RNFT2 (11725882_a_at) / RFU NR4A2 (11747474_a_at) / Fold change /veh NR4A2 (11747474_a_at) / RFU ABCC12 (11746883_a_at) / Fold change /veh ABCC12 (11746883_a_at) / RFU TMEM136 (11760407_x_at) / Fold change /veh TMEM136 (11760407_x_at) / RFU CLDN22 /// WWC2 (11732394_at) / Fold change /veh CLDN22 /// WWC2 (11732394_at) / RFU HLA-DPB1 (11760878_x_at) / Fold change /veh HLA-DPB1 (11760878_x_at) / RFU SPINT1 (11716480_a_at) / Fold change /veh SPINT1 (11716480_a_at) / RFU GAP43 (11754022_s_at) / Fold change /veh GAP43 (11754022_s_at) / RFU A4GNT (11735810_at) / Fold change /veh A4GNT (11735810_at) / RFU PRB3 (11715151_x_at) / Fold change /veh PRB3 (11715151_x_at) / RFU TUBB4B (11761932_at) / Fold change /veh TUBB4B (11761932_at) / RFU CAPN14 (11732068_a_at) / Fold change /veh CAPN14 (11732068_a_at) / RFU TMCC2 (11721928_a_at) / Fold change /veh TMCC2 (11721928_a_at) / RFU IRGQ (11745062_a_at) / Fold change /veh IRGQ (11745062_a_at) / RFU FAM174B (11720279_a_at) / Fold change /veh FAM174B (11720279_a_at) / RFU TMPRSS4 (11748680_a_at) / Fold change /veh TMPRSS4 (11748680_a_at) / RFU FAM212B (11763350_a_at) / Fold change /veh FAM212B (11763350_a_at) / RFU PLEKHG5 (11743358_a_at) / Fold change /veh PLEKHG5 (11743358_a_at) / RFU ZSCAN30 (11745921_a_at) / Fold change /veh ZSCAN30 (11745921_a_at) / RFU CMKLR1 (11741424_a_at) / Fold change /veh CMKLR1 (11741424_a_at) / RFU LOC101060620 /// MAPK8IP1 (11723275_at) / Fold change /veh LOC101060620 /// MAPK8IP1 (11723275_at) / RFU SPTSSB (11747773_x_at) / Fold change /veh SPTSSB (11747773_x_at) / RFU PRSS12 (11739890_at) / Fold change /veh PRSS12 (11739890_at) / RFU BIN1 (11741810_x_at) / Fold change /veh BIN1 (11741810_x_at) / RFU WNT11 (11732464_a_at) / Fold change /veh WNT11 (11732464_a_at) / RFU C10orf10 (11716521_a_at) / Fold change /veh C10orf10 (11716521_a_at) / RFU C5orf56 (11738089_at) / Fold change /veh C5orf56 (11738089_at) / RFU CYB561 (11721691_x_at) / Fold change /veh CYB561 (11721691_x_at) / RFU ANKRD19P (11752326_a_at) / Fold change /veh ANKRD19P (11752326_a_at) / RFU OR2T12 /// OR2T33 /// OR2T8 (11738714_s_at) / Fold change /veh OR2T12 /// OR2T33 /// OR2T8 (11738714_s_at) / RFU VCAN (11748164_a_at) / Fold change /veh VCAN (11748164_a_at) / RFU JSRP1 (11732532_at) / Fold change /veh JSRP1 (11732532_at) / RFU KRTAP10-11 (11738290_x_at) / Fold change /veh KRTAP10-11 (11738290_x_at) / RFU MYO3A (11730013_a_at) / Fold change /veh MYO3A (11730013_a_at) / RFU EBF3 (11725865_a_at) / Fold change /veh EBF3 (11725865_a_at) / RFU CAMK2N1 (11719241_x_at) / Fold change /veh CAMK2N1 (11719241_x_at) / RFU C5orf56 (11738088_a_at) / Fold change /veh C5orf56 (11738088_a_at) / RFU OLFML3 (11715873_a_at) / Fold change /veh OLFML3 (11715873_a_at) / RFU LOC100653217 /// NTM (11731650_a_at) / Fold change /veh LOC100653217 /// NTM (11731650_a_at) / RFU MAPK11 (11762145_a_at) / Fold change /veh MAPK11 (11762145_a_at) / RFU FIZ1 (11724087_x_at) / Fold change /veh FIZ1 (11724087_x_at) / RFU OASL (11726364_x_at) / Fold change /veh OASL (11726364_x_at) / RFU SOX15 (11748057_x_at) / Fold change /veh SOX15 (11748057_x_at) / RFU CD79A (11719716_a_at) / Fold change /veh CD79A (11719716_a_at) / RFU HIST1H1D (11736915_at) / Fold change /veh HIST1H1D (11736915_at) / RFU CASKIN2 (11723855_a_at) / Fold change /veh CASKIN2 (11723855_a_at) / RFU LOC730098 (11760151_x_at) / Fold change /veh LOC730098 (11760151_x_at) / RFU OR4N2 (11742367_at) / Fold change /veh OR4N2 (11742367_at) / RFU PRRT2 (11749266_a_at) / Fold change /veh PRRT2 (11749266_a_at) / RFU SNX32 (11753110_a_at) / Fold change /veh SNX32 (11753110_a_at) / RFU CDHR5 (11726645_a_at) / Fold change /veh CDHR5 (11726645_a_at) / RFU RCAN1 (11760418_a_at) / Fold change /veh RCAN1 (11760418_a_at) / RFU FAM167A (11723789_a_at) / Fold change /veh FAM167A (11723789_a_at) / RFU FAM26E (11764081_at) / Fold change /veh FAM26E (11764081_at) / RFU ISYNA1 (11749810_s_at) / Fold change /veh ISYNA1 (11749810_s_at) / RFU ACY1 (11761880_at) / Fold change /veh ACY1 (11761880_at) / RFU 11764098_at / Fold change /veh 11764098_at / RFU SAMD14 (11745864_x_at) / Fold change /veh SAMD14 (11745864_x_at) / RFU NPB (11741838_a_at) / Fold change /veh NPB (11741838_a_at) / RFU TMPRSS6 (11731388_a_at) / Fold change /veh TMPRSS6 (11731388_a_at) / RFU KRTAP10-2 (11738614_at) / Fold change /veh KRTAP10-2 (11738614_at) / RFU ARHGAP8 /// PRR5-ARHGAP8 (11727945_x_at) / Fold change /veh ARHGAP8 /// PRR5-ARHGAP8 (11727945_x_at) / RFU KRTAP5-7 /// NADSYN1 (11734609_at) / Fold change /veh KRTAP5-7 /// NADSYN1 (11734609_at) / RFU RASL12 (11751679_a_at) / Fold change /veh RASL12 (11751679_a_at) / RFU CDKN2B (11736163_a_at) / Fold change /veh CDKN2B (11736163_a_at) / RFU PRF1 (11729649_at) / Fold change /veh PRF1 (11729649_at) / RFU, ZNF638 /// ZNF638-IT1 / Fold change vs veh, ZNF638 /// ZNF638-IT1 / RFU, PANK3 / Fold change vs veh, PANK3 / RFU, SH3YL1 / Fold change vs veh, SH3YL1 / RFU, ZEB2 / Fold change vs veh, ZEB2 / RFU, NRIP1 / Fold change vs veh, NRIP1 / RFU, PTTG1IP / Fold change vs veh, PTTG1IP / RFU, CAPN2 / Fold change vs veh, CAPN2 / RFU, MED14 / Fold change vs veh, MED14 / RFU, SNORA58 / Fold change vs veh, SNORA58 / RFU, C1orf63 / Fold change vs veh, C1orf63 / RFU, LRRFIP1 / Fold change vs veh, LRRFIP1 / RFU, NDUFAF7 / Fold change vs veh, NDUFAF7 / RFU, SLC12A2 / Fold change vs veh, SLC12A2 / RFU, IBTK / Fold change vs veh, IBTK / RFU, ESF1 / Fold change vs veh, ESF1 / Fold change vs veh, TMEM50B / RFU, TAOK1 / Fold change vs veh, TAOK1 / RFU, ACBD3 / Fold change vs veh, ACBD3 / RFU, TMA16 / Fold change vs veh, TMA16 / RFU, RWDD3 / Fold change vs veh, RWDD3 / RFU, BCAT1 / Fold change vs veh, BCAT1 / RFU, EDEM3 / Fold change vs veh, EDEM3 / RFU, TMEM33 / Fold change vs veh, TMEM33 / RFU, WDR75 / Fold change vs veh, WDR75 / RFU, AHCTF1 / Fold change vs veh, AHCTF1 / RFU, TFRC / Fold change vs veh, TFRC / RFU, ZDHHC17 / Fold change vs veh, ZDHHC17 / RFU, NOM1 / Fold change vs veh, NOM1 / RFU, ARL8B / Fold change vs veh, ARL8B / RFU, ZBTB11 / Fold change vs veh, ZBTB11 / RFU, TAMM41 / Fold change vs veh, TAMM41 / RFU, KIAA1704 /// LOC100996395 / Fold change vs veh, KIAA1704 /// LOC100996395 / RFU, ING1 / Fold change vs veh, ING1 / RFU, TRMT61B / Fold change vs veh, TRMT61B / RFU, FUBP3 / Fold change vs veh, FUBP3 / RFU, TP53 / Fold change vs veh, TP53 / RFU, TNKS2 / Fold change vs veh, TNKS2 / RFU, ZFP14 / Fold change vs veh, ZFP14 / RFU, ACTR2 / Fold change vs veh, ACTR2 / RFU, PPP3R1 / Fold change vs veh, PPP3R1 / RFU, PIK3R1 / Fold change vs veh, PIK3R1 / RFU, HNRNPA1 / Fold change vs veh, HNRNPA1 / RFU, RNF170 / Fold change vs veh, RNF170 / RFU, ZNF28 / Fold change vs veh, ZNF28 / RFU, RNGTT / Fold change vs veh, RNGTT / RFU, OGT / Fold change vs veh, OGT / RFU, BRD1 / Fold change vs veh, BRD1 / RFU, MARS / Fold change vs veh, MARS / RFU, ZNF655 / Fold change vs veh, ZNF655 / RFU, FAHD1 / Fold change vs veh, FAHD1 / RFU, BDP1 / Fold change vs veh, BDP1 / RFU, LRRCC1 / Fold change vs veh, LRRCC1 / RFU, ARID1A / Fold change vs veh, ARID1A / RFU, ZNF146 / Fold change vs veh, ZNF146 / RFU, ZNF330 / Fold change vs veh, ZNF330 / RFU, GPN3 / Fold change vs veh, GPN3 / RFU, C9orf123 / Fold change vs veh, C9orf123 / RFU, N4BP2L2 / Fold change vs veh, N4BP2L2 / RFU, ARFIP1 / Fold change vs veh, ARFIP1 / RFU, FAM179B / Fold change vs veh, FAM179B / RFU, BCL10 / Fold change vs veh, BCL10 / RFU, UHRF1BP1L / Fold change vs veh, UHRF1BP1L / RFU, BET1 / Fold change vs veh, BET1 / RFU, CNOT2 / Fold change vs veh, CNOT2 / RFU, ZNF268 / Fold change vs veh, ZNF268 / Fold change vs veh, ZNF507 / RFU, DGCR2 / Fold change vs veh, DGCR2 / RFU, WDSUB1 / Fold change vs veh, WDSUB1 / Fold change vs veh, HSP90B1 /// MIR3652 / RFU, ADSS / Fold change vs veh, ADSS / RFU, GK / Fold change vs veh, GK / RFU, ZNF148 / Fold change vs veh, ZNF148 / RFU, TAF9 / Fold change vs veh, TAF9 / RFU, SLC1A5 / Fold change vs veh, SLC1A5 / RFU, SLMO2 / Fold change vs veh, SLMO2 / RFU, ABCC4 / Fold change vs veh, ABCC4 / RFU, LOC101060439 /// RAP1B / Fold change vs veh, LOC101060439 /// RAP1B / RFU, RFX7 / Fold change vs veh, RFX7 / RFU, GTPBP10 / Fold change vs veh, GTPBP10 / RFU, CNEP1R1 / Fold change vs veh, CNEP1R1 / RFU, BIVM-ERCC5 /// ERCC5 / Fold change vs veh, BIVM-ERCC5 /// ERCC5 / RFU, ILF3 / Fold change vs veh, ILF3 / RFU 11762660_at / Fold change /veh 11762660_at / RFU VCAN (11757783_s_at) / Fold change /veh VCAN (11757783_s_at) / RFU DDX43 (11728927_at) / Fold change /veh DDX43 (11728927_at) / RFU KRT8 (11758188_x_at) / Fold change /veh KRT8 (11758188_x_at) / RFU NKD1 (11759106_at) / Fold change /veh NKD1 (11759106_at) / RFU SRD5A1 (11742802_a_at) / Fold change /veh SRD5A1 (11742802_a_at) / RFU TPSAB1 /// TPSB2 (11721975_s_at) / Fold change /veh TPSAB1 /// TPSB2 (11721975_s_at) / RFU GSTM3 (11746129_a_at) / Fold change /veh GSTM3 (11746129_a_at) / RFU IL23R (11737362_x_at) / Fold change /veh IL23R (11737362_x_at) / RFU TMEM51 (11727254_a_at) / Fold change /veh TMEM51 (11727254_a_at) / RFU PIWIL2 (11732686_x_at) / Fold change /veh PIWIL2 (11732686_x_at) / RFU ORM1 (11744905_x_at) / Fold change /veh ORM1 (11744905_x_at) / RFU CCDC152 (11743942_at) / Fold change /veh CCDC152 (11743942_at) / RFU ECM1 (11717891_a_at) / Fold change /veh ECM1 (11717891_a_at) / RFU IL23R (11748794_a_at) / Fold change /veh IL23R (11748794_a_at) / RFU TNFAIP8L3 (11732012_x_at) / Fold change /veh TNFAIP8L3 (11732012_x_at) / RFU MBOAT4 (11741988_at) / Fold change /veh MBOAT4 (11741988_at) / RFU 11764193_at / Fold change /veh 11764193_at / RFU TMEM53 (11763286_at) / Fold change /veh TMEM53 (11763286_at) / RFU MAGEB2 (11727129_at) / Fold change /veh MAGEB2 (11727129_at) / RFU TMEM200A (11744735_a_at) / Fold change /veh TMEM200A (11744735_a_at) / RFU CCDC152 (11751479_a_at) / Fold change /veh CCDC152 (11751479_a_at) / RFU FAM211A (11726209_a_at) / Fold change /veh FAM211A (11726209_a_at) / RFU RGS16 (11746705_a_at) / Fold change /veh RGS16 (11746705_a_at) / RFU VCAN (11755009_s_at) / Fold change /veh VCAN (11755009_s_at) / RFU RHOB (11743442_s_at) / Fold change /veh RHOB (11743442_s_at) / RFU RGS16 (11720943_a_at) / Fold change /veh RGS16 (11720943_a_at) / RFU RGS16 (11720944_at) / Fold change /veh RGS16 (11720944_at) / RFU, VPS4B / Fold change vs veh, VPS4B / RFU, CREB1 / Fold change vs veh, CREB1 / RFU, DNAJC13 / Fold change vs veh, DNAJC13 / RFU, GNAQ / Fold change vs veh, GNAQ / RFU, CDK5R1 / Fold change vs veh, CDK5R1 / RFU, ZRANB3 / Fold change vs veh, ZRANB3 / RFU, CUL4A / Fold change vs veh, CUL4A / RFU, CCNY / Fold change vs veh, CCNY / RFU, UFL1 / Fold change vs veh, UFL1 / RFU, COG3 / Fold change vs veh, COG3 / RFU, DIAPH2 / Fold change vs veh, DIAPH2 / RFU, SKA2 / Fold change vs veh, SKA2 / RFU, AFF3 / Fold change vs veh, AFF3 / RFU, LMF1 / Fold change vs veh, LMF1 / RFU, IPO11 / Fold change vs veh, IPO11 / RFU, DFFB / Fold change vs veh, DFFB / RFU, FOXP1 / Fold change vs veh, FOXP1 / RFU, CARD8 / Fold change vs veh, CARD8 / RFU, STRN3 / Fold change vs veh, STRN3 / RFU, ADK / Fold change vs veh, ADK / RFU, RASSF2 / Fold change vs veh, RASSF2 / RFU, WIPF1 / Fold change vs veh, WIPF1 / RFU, LARP1B / Fold change vs veh, LARP1B / RFU, RASA1 / Fold change vs veh, RASA1 / RFU, RB1 / Fold change vs veh, RB1 / RFU, PPFIA1 / Fold change vs veh, PPFIA1 / RFU, MAT2A / Fold change vs veh, MAT2A / RFU, CCT5 / Fold change vs veh, CCT5 / RFU, WDR92 / Fold change vs veh, WDR92 / RFU, CUX1 / Fold change vs veh, CUX1 / RFU, TTC7A / Fold change vs veh, TTC7A / RFU, TMEM135 / Fold change vs veh, TMEM135 / RFU, DEPTOR / Fold change vs veh, DEPTOR / RFU, CPM / Fold change vs veh, CPM / RFU, DNAJB6 / Fold change vs veh, DNAJB6 / RFU, CACNA2D3 / Fold change vs veh, CACNA2D3 / RFU, DTX4 / Fold change vs veh, DTX4 / RFU, TFCP2 / Fold change vs veh, TFCP2 / RFU, GMCL1 /// GMCL1P1 / Fold change vs veh, GMCL1 /// GMCL1P1 / RFU, AEBP2 / Fold change vs veh, AEBP2 / RFU, SNHG1 /// SNORD22 /// SNORD25 /// SNORD26 /// SNORD27 /// SNORD28 /// SNORD29 /// SNORD31 / Fold change vs veh, SNHG1 /// SNORD22 /// SNORD25 /// SNORD26 /// SNORD27 /// SNORD28 /// SNORD29 /// SNORD31 / Fold change (Aza/veh), C12orf56 (ProbeSet 11735607_a_at) / Fold change (ACY-1035/veh), C12orf56 (ProbeSet 11735607_a_at) / Fold change (Aza/veh), FGFR1OP (ProbeSet 11751329_s_at) / Fold change (ACY-1035/veh), FGFR1OP (ProbeSet 11751329_s_at) / Fold change (Aza/veh), VPS36 (ProbeSet 11739960_a_at) / Fold change (ACY-1035/veh), VPS36 (ProbeSet 11739960_a_at) / RFU SYPL1 (11715823_x_at) / Fold change /veh SYPL1 (11715823_x_at) / RFU IGFBP7 (11715501_s_at) / Fold change /veh IGFBP7 (11715501_s_at) / RFU REEP3 (11722064_at) / Fold change /veh REEP3 (11722064_at) / RFU IGLL1 (11728026_x_at) / Fold change /veh IGLL1 (11728026_x_at): dose or concentration left out as unconfirmed
Conditions: MV-4-11 cells, 48 hours

Nc1ccc(-c2cccs2)cc1NC(=O)c1ccc2c(c1)cc(C1CC1)n2CCN1CCOCC1 [ACY-1035]
Fold change /veh ZSCAN30 (11745921_a_at): 1.04
